Source: article PMC10145437, “Pd(II) and Pt(II) Trinuclear Chelates with Spermidine: Selective Anticancer Activity towards TNBC-Sensitive and -Resistant to Cisplatin” (Pharmaceutics, 2023)
Read-outs that look alike come from different tables or passages of the source.

How the values were obtained:
[1] = system: MCF-12A cells (non-cancerous breast cells); test: Cell proliferation evaluation (label-free image cell counting); format: cell-based, human; settings: for IC50: suppression of cell proliferation, n = 4, read-out: IC50 against MCF-12A cells; for Selectivity Index for MDA-MB-231/R: IC50 MCF-12A divided by IC50 MDA-MB-231/R
Protocol: (§1) The human TNBC MDA-MB-231 cell line (ATCC HTB-26) and the non-cancerous breast cell line MCF-12A (ATCC CRL-10782) were purchased from ATCC (Manassas, VA, USA). DMEM-HG cell growth medium supplemented with 10% (v/v) FBS was used to culture breast cancer cells. To establish a cisplatin-resistant cell strain, MDA-MB-231 cells were continuously treated with increasing concentrations of cisplatin (up to 2 µM) during a period of 6 months. When a consistent cell growth rate in the presence of cisplatin was achieved, these cells were named MDA-MB-231/R and stocked to assure the consistency of the phenotype for future use and experiments. All posterior experiments were performed within 10 passages to maintain the resistance while routinely growing the MDA-MB-231/R cell line in a cell culture medium without the addition of cisplatin. MCF-12A cells were cultured in DMEM/F12 medium supplemented with 100 ng/mL cholera toxin, 0.01 mg/mL bovine insulin, 20 ng/mL hEGF, 500 ng/mL hydrocortisone and 5% (v/v) horse serum. Cells were grown in monolayers in a sterile environment at 37 °C with a 5% CO2 humidified atmosphere. Under these conditions, the population doubling time was 25.5 ± 0.9 h and 30.6 ± 1.1 h for MDA-MB-231 and MDA-MB-231/R cells, respectively, and 20.6 ± 3.1 h for MCF-12A cells. The cell cultures were routinely screened for mycoplasma contamination, yielding negative results.
(§2) Cells were seeded in 96-well microplates at the cell density 1.5 × 10^4 cells/cm^2 (final volume 200 µL/well) and left 24 h to attach. Afterwards, the growth medium was replaced with the growth medium containing cisplatin (0.1–200 µM), Pd3Spd2 (0.3–200 µM), Pt3Spd2 (0.3–100 µM) and Pd2Spm (0.3–200 µM).
(§3) Cell proliferation was monitored with the direct image acquisition of cells on microplates at 0, 24, 48 and 72 h post-addition of the tested compounds using a LionheartFX automated microscope (BioTek, Winooski, VT, USA). Label-free kinetic 4× images were acquired and processed using Gen 5 Image Analysis software (BioTek, Winooski, VT, USA). Individual cells per image were identified and counted, and normalized cell growth (%) was calculated using the following formula: Ct=Number of Treated Cellst−Number of Treated Cells0/Number of Untreated Cellst−Number of Untreated Cells0×100 where C(t) is the percent of net cell growth over time, Number of Treated Cells(t) is the count of cells treated with drug at each time point, Number of Treated Cells(0) is the count cells treated with drug at time 0 h, Number of Untreated Cells(t) is the count of untreated (control) cells at each time point and Number of Untreated Cells(0) is the count of untreated (control) cells at time 0 h.
(§4) Data are expressed as the mean ± standard error of the mean (SEM). GraphPad Prism 7 Software (San Diego, CA, USA) was used, and the statistical analysis was performed using the two-tailed Student’s t-test. The half-maximal inhibitory concentration values (IC50) were calculated by interpolation from the nonlinear regression curves obtained from cell proliferation/cytotoxicity data using “log(inhibitor) versus the normalized response–variable slope equation”. A p-value lower than 0.05 was considered statistically significant.

MDA-MB-231 cells [2] = test: as above; format: cell-based, human; settings: for concentration of maximum suppression of cell proliferation: MDA-MB-231, 48 h
Protocol: as §1, §2, §3, §4

[3] = system: MDA-MB-231/R cells (cisplatin-resistant); test: as above; format: cell-based, human; settings: for concentration of maximum suppression of cell proliferation: MDA-MB-231/R; for IC50: suppression of cell proliferation, n = 4; for Resistance Index: IC50 MDA-MB-231/R divided by IC50 MDA-MB-231, cell proliferation assay
Protocol: as §1, §2, §3, §4

MDA-MB-231 cells [4] = test: MTT assay (cell viability); format: cell-based, human; settings: n = 4
Protocol: (§5) The cells were harvested upon the addition of trypsin/EDTA solution, seeded in 96-well plates (1.5 × 10^4 cells/cm^2) and incubated at 37 °C. After allowing the cells to adhere for 24 h, the growth medium was replaced with the growth medium containing Pd3Spd2 (1–200 µM) or Pt3Spd2 (1–200 µM).
(§6) After each incubation period (24, 48 and 72 h), the cell viability was evaluated by the MTT [33] method. Briefly, a MTT solution (0.5 mg/mL in PBS) was added to each well after carefully removing the medium and allowed to incubate for 3 h at 37 °C; after which, the MTT was aspirated and, in order to dissolve the formazan crystals, 100 µL of DMSO were added. The optical density was measured at 570 nm.
as §4

[5] = system: MDA-MB-231/R cells (cisplatin-resistant); test: MTT assay (cell viability); format: cell-based, human; settings: for IC50: cell viability, MTT assay, n = 4
Protocol: as §5, §6, §4

sarcoma = system: sarcoma; parameters: method as in earlier work; settings: cited from earlier work
leukemic P388 cells = system: leukemic P388 cells; parameters: method as in doi:10.1016/j.ccr.2016.02.001; settings: cited from earlier work
[6] = suppression of cell proliferation, 48 h incubation, n = 4, read-out: MDA-MB-231 IC50
[7] = IC50 MCF-12A divided by IC50 MDA-MB-231, 48 h
[8] = suppression of cell proliferation, 24 h incubation, n = 4, read-out: MDA-MB-231 IC50
[9] = suppression of cell proliferation, 72 h incubation, n = 4, read-out: MDA-MB-231 IC50

| Compound | IC50 ([1]; 48 h incubation) | concentration of maximum suppression of cell proliferation (MDA-MB-231 cells [2]) | IC50 (MDA-MB-231 cells [2]; [6]) | concentration of maximum suppression of cell proliferation ([3]; 48 h) | IC50 ([3]; 48 h incubation) | Selectivity Index for MDA-MB-231 [1, 7] | IC50 (MDA-MB-231 cells [2]; [8]) | IC50 (MDA-MB-231 cells [2]; [9]) | IC50 ([3]; 24 h incubation) | IC50 ([3]; 72 h incubation) | IC50 (MDA-MB-231 cells [4]; 24 h incubation) | IC50 (MDA-MB-231 cells [4]; 48 h incubation) | IC50 (MDA-MB-231 cells [4]; 72 h incubation) | IC50 ([5]; 24 h incubation) | IC50 ([5]; 48 h incubation) | IC50 ([5]; 72 h incubation) | other results |
| --- | --- | --- | --- | --- | --- | --- | --- | --- | --- | --- | --- | --- | --- | --- | --- | --- | --- |
| NCCCNCCCCNCCCN.[Cl][Pd][Cl].[Cl][Pd][Cl] [Pd2Spm, reference compound] | ~90 µM | 30 µM | 7.9 µM | 30 µM | 11.6 µM | – | – | – | – | – | – | – | – | – | – | – | concentrations required to suppress/modify MCF-12A cell proliferation ([1]; MCF-12A healthy breast cells, 48 h): above 40 μM; suppression of MCF-12A cell proliferation ([1]; MCF-12A, for 100 μM, 48 h): up to 60% |
| NCCCCNCCCN.NCCCCNCCCN.[Cl][Pd][Cl].[Cl][Pd][Cl].[Cl][Pd][Cl] [Pd3Spd2] | 53 µM | 30 µM | 8.44 µM | 30 µM | 10.6 µM | 6.28 | 8.35 µM | 7.92 µM | 13.3 µM | 10.8 µM | 8.99 µM | 4.65 µM | 6.12 µM | 9.24 µM | 10.6 µM | 11.4 µM | Selectivity Index for MDA-MB-231 ([1]; IC50 MCF-12A divided by IC50 MDA-MB-231, 24 h): 7.94; Selectivity Index for MDA-MB-231 ([1]; IC50 MCF-12A divided by IC50 MDA-MB-231, 72 h): 6.28; Selectivity Index for MDA-MB-231/R ([1]; 48 h): 4.99; Selectivity Index for MDA-MB-231/R ([1]; 72 h): 4.59; selectivity index for MDA-MB-231 cells (sensitive TNBC), over incubation times ([1]; MCF-12A versus MDA-MB-231, depending on the time of incubation (24-72 h)): > 6.28; selectivity index for MDA-MB-231/R cells (resistant TNBC), over incubation times ([1]; MCF-12A versus MDA-MB-231/R, depending on the time of incubation (24-72 h)): > 4.59; IC50 ([1]; 24 h incubation): 66.3 µM; IC50 ([1]; 72 h incubation): 49.7 µM; concentrations that suppressed cell proliferation (MDA-MB-231 cells [2]; MDA-MB-231, 24-72 h, concentration-dependent): above 1 μM; Resistance Index ([3]; 24 h): 1.6; Resistance Index ([3]; 48 h): 1.3; Resistance Index ([3]; 72 h): 1.4; resistance index (abstract summary) ([5]; MDA-MB-231/R versus MDA-MB-231, over assays and incubation times): lower than 2.3 |
| O=[N+]([O-])[O-].O=[N+]([O-])[O-].[Pd+2].c1ccc(-c2ccccn2)nc1 [Pd(bpy)(ONO2)2] | – | – | – | – | – | – | – | – | – | – | – | – | – | – | – | – | antitumor activity against sarcoma (sarcoma): effective antitumor agent; activity towards leukemic P388 cells (leukemic P388 cells): inactive |
| NCCCCNCCCN.NCCCCNCCCN.[Cl][Pt][Cl].[Cl][Pt][Cl].[Cl][Pt][Cl] [Pt3Spd2] | – | – | > 100 µM | – | > 100 µM | – | > 100 µM | > 100 µM | > 100 µM | > 100 µM | > 100 µM | > 100 µM | > 100 µM | > 100 µM | 67.9 µM | > 100 µM | reduction of cell proliferation (MDA-MB-231 cells [2]; MDA-MB-231, only with concentrations above 100 μM): up to 25%; IC50 (MDA-MB-231 cells [2]; cell proliferation, depending on the incubation period (24, 48, 72 h), read-out: IC50 in MDA-MB-231 cells, over all incubation periods): > 100 µM |
| N.N.[Cl][Pt][Cl] [cisplatin, cis-dichlorodiammine platinum(II)] | 1 µM | 30 µM | 1 µM | 200 µM | 32.4 µM | 1 | – | – | – | – | – | – | – | – | – | – | – |
